Read-outs that look alike come from different tables or passages of the source.
Tests used:
[1] = tested on: pCREB in gated human CD4+ cells; assay: Intracellular pCREB by flow cytometry in NECA-treated PBMCs, gated CD4+ T cells; format: cell-based; details: read-out: Activity (reduction of pCREB, restoration to normal physiological levels)
Protocol: (§1) Human peripheral blood mononuclear cells (PBMCs) were isolated using density centrifugation from fresh whole blood of healthy human blood donors. Cells were cryopreserved and thawed and rested for several hours in complete cell culture media containing human albumin and antibiotics (penicillin and streptomycin; 100 units or mg per ml respectively). […] DMSO was used as the storage diluent for concentrated A2AR antagonists. NECA and DMSO controls (% v/v) were also tested in parallel to the therapeutic candidates. After the indicated incubation time with NECA, cells were either stained to determine their intracellular level of pCREB, or activated with Dynabeads overnight before staining for intracellular cytokines, as described below.
(§2) PBMCs that were cultured with A2AR antagonists in the presence of NECA and were subsequently fixed and permeabilized using ice cold paraformaldehyde and methanol-based kit reagents (ThermoFisher and Miltenyi, respectively). […] Stained cells were acquired using a Fortessa flow cytometer (BD). Gating of the desired cell subsets was performed using FSC-A vs FSC—H to remove doublet cells, FSC vs SSC parameters to identify cells with lymphocyte-like morphology, followed by CD3^+ T cell and CD4^+ or CD8^+ sub-gating. The fold change in mean fluorescence intensity (MFI) of intracellular pCREB in gated CD4 or CD8^+ T cells was calculated using NECA-only conditions, and divided by NECA and A2AR antagonist-cultured cells from the same donor. The overall activity of the tested compounds was calculated using the average of at least 3 donors.
(§3) Compounds of the invention were tested in physiological conditions using healthy human peripheral blood mononuclear cells as well as in the presence of human albumin to increase the physiological relevance of the assay. […] The activity scale represented is the average for at least 3 donors, compared to the NECA-only control.

[2] = tested on: pCREB in gated human CD8+ cells; assay: Intracellular pCREB by flow cytometry in NECA-treated PBMCs, gated CD8+ T cells; format: cell-based; details: read-out: Activity (reduction of pCREB, restoration to normal physiological levels)
Protocol: as §1, §2, §3

A2AR = A2AR (Homo sapiens, UniProt P29274); assay: cAMP biosensor antagonist potency assay in CHO cells expressing recombinant A2AR
Chain of A2AR (P29274 whole entry): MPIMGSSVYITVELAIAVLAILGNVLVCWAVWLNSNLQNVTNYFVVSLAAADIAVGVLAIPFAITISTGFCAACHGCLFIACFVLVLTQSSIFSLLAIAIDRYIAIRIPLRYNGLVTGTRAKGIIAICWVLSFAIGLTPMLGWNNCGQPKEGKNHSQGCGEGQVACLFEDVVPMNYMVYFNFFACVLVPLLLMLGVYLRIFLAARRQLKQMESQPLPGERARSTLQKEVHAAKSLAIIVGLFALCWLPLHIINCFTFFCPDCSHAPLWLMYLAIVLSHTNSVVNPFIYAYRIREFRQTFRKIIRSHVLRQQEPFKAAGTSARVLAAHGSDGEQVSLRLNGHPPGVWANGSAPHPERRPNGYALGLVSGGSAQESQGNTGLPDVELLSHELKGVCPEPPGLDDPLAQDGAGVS
Protocol: Chinese Hamster Ovary (CHO) cells containing an in-house cAMP-based biosensor, described below, and expressing recombinant A2AR were used to characterize the potency of A2AR antagonists according to the invention. The biosensor contains a cAMP binding domain allowing the measurement of Gs and Gi-coupled receptors activation. Cells were treated in a 384 well plate with the indicated concentrations of A2AR antagonists, followed by the addition of an A2AR agonist, adenosine. cAMP levels were measured on a luminescent/fluorescent plate reader.
CHO cells expressing A2AR and the biosensor were seeded in a black 384-well plate (Nunc) and grown at 37° C. and 5% CO2 overnight. […] The cAMP biosensor allowed real-time monitoring of signals using an FDSS/μCELL (Hamamatsu). The assay was conducted in 1× Hanks Balanced Salt Solution (HBSS). The total volume of the reaction was 80 μl (45 μl of cells, 15 μl of antagonist and 20 μl of agonist). Data analysis was performed using GraphPad Prism.

[3] = compound at 1 μM, 5 µM NECA, gated human CD4+ cells, average of at least 3 donors vs NECA-only control
[4] = compound at 1 μM, 5 µM NECA, gated human CD8+ cells, average of at least 3 donors vs NECA-only control

| Structure (SMILES) | IC50 (A2AR) | inhibition at 1 µM [1, 3] | inhibition at 1 µM [2, 4] | inhibition at 1 µM ([1]; Homo sapiens) | inhibition at 1 µM ([2]; Homo sapiens) |
| --- | --- | --- | --- | --- | --- |
| Cc1cc(-c2nnc(N)nc2-c2ccc(F)cc2)cc(Cl)n1 [Imaradenant, 6-(2-chloro-6-methylpyridin-4-yl)-5-(4-fluorophenyl)-1,2,4-triazin-3-amine, reference compound] | – | 40 to 70% | 40 to 70% | – | – |
| COc1nc(N)c(C#N)c(-c2cccc(-c3ccccc3)c2)c1C#N [Compound 21, 4-([1,1′-biphenyl]-3-yl)-2-amino-6-methoxypyridine-3,5-dicarbonitrile] | 200 to 1000 nM | – | – | – | – |
| N#Cc1c(N)nc(N2CCOCC2)c(C#N)c1-c1cccc(-c2ccccc2)c1 [Compound 18, 4-([1,1′-biphenyl]-3-yl)-2-amino-6-morpholinopyridine-3,5-dicarbonitrile] | 200 to 1000 nM | – | – | – | – |
| Cc1ccc(-c2nc(N)nc3c2nnn3Cc2cccc(CO[C@H]3CCOC3)n2)o1 [Ciforadenant, 7-(5-methylfuran-2-yl)-3-[[6-[[(3S)-oxolan-3-yl]oxymethyl]pyridin-2-yl]methyl]triazolo[4,5-d]pyrimidin-5-amine, reference compound] | – | 70 to 90% | 70 to 90% | – | – |
| N#Cc1c(N)nc(N2CCCCC2)c(C#N)c1-c1cccc(-c2ccccc2)c1 [Compound 3, 4-([1,1′-biphenyl]-3-yl)-2-amino-6-(piperidin-1-yl)pyridine-3,5-dicarbonitrile] | – | – | – | > 90% | > 90% |
| N#Cc1c(N)nc(N2CCCCC2)c(C#N)c1-c1cccc(-c2ccccc2F)c1 [Compound 4, 2-amino-4-(2′-fluoro-[1,1′-biphenyl]-3-yl)-6-(piperidin-1-yl)pyridine-3,5-dicarbonitrile] | – | – | – | > 90% | > 90% |
| Nc1nc(-n2cccn2)nc(-n2cccn2)c1Br [Taminadenant, 5-bromo-2,6-di(pyrazol-1-yl)pyrimidin-4-amine, reference compound] | – | 0 to 40% | 0 to 40% | – | – |
| COCCOc1ccc(N2CCN(CCn3ncc4c3nc(N)n3nc(-c5ccco5)nc43)CC2)cc1 [Preladenant, 4-(furan-2-yl)-10-[2-[4-[4-(2-methoxyethoxy)phenyl]piperazin-1-yl]ethyl]-3,5,6,8,10,11-hexazatricyclo[7.3.0.0^2,6]dodeca-1(9),2,4,7,11-pentaen-7-amine, reference compound] | – | 70 to 90% | 70 to 90% | – | – |
| Cc1c(C#N)cccc1-c1cc(-c2cn(Cc3cccc(C(C)(C)O)n3)nn2)nc(N)n1 [Etrumadenant, 3-[2-Amino-6-[1-[[6-(2-hydroxypropan-2-yl)pyridin-2-yl]methyl]triazol-4-yl]pyrimidin-4-yl]-2-methylbenzonitrile, reference compound] | – | > 90% | > 90% | – | – |

Further lines, with some results ahead:

| IC50 (A2AR) | Structure (SMILES) | inhibition at 1 µM [1, 3] | inhibition at 1 µM [2, 4] | inhibition at 1 µM ([1]; Homo sapiens) | inhibition at 1 µM ([2]; Homo sapiens) |
| --- | --- | --- | --- | --- | --- |
| < 200 nM | N#Cc1c(N)nc(N2CCCCC2)c(C#N)c1-c1cccc(-c2cccnc2)c1F [Compound 30, 2-amino-4-(2-fluoro-3-(pyridin-3-yl)phenyl)-6-(piperidin-1-yl)pyridine-3,5-dicarbonitrile] | 40 to 70% | 0 to 40% | – | – |
| < 200 nM | CCOc1nc(N)c(C#N)c(-c2cccc(-c3ccccc3)c2)c1C#N [Compound 22, 4-([1,1′-biphenyl]-3-yl)-2-amino-6-ethoxypyridine-3,5-dicarbonitrile] | – | – | – | – |
| < 200 nM | N#Cc1c(N)nc(N2CCCCC2)c(C#N)c1-c1cccc(-c2cccnc2F)c1 [Compound 28, 2-amino-4-(3-(2-fluoropyridin-3-yl)phenyl)-6-(piperidin-1-yl)pyridine-3,5-dicarbonitrile] | > 90% | 70 to 90% | – | – |
| < 200 nM | N#Cc1c(N)nc(N2CCCCC2)c(C#N)c1-c1cc(F)cc(-c2cccnc2)c1 [Compound 31, 2-amino-4-(3-fluoro-5-(pyridin-3-yl)phenyl)-6-(piperidin-1-yl)pyridine-3,5-dicarbonitrile] | 40 to 70% | 0 to 40% | – | – |
| 200 to 1000 nM | N#Cc1c(N)nc(N2CCCCC2)c(C#N)c1-c1cccc(-c2cncc(F)c2)c1 [Compound 27, 2-amino-4-(3-(5-fluoropyridin-3-yl)phenyl)-6-(piperidin-1-yl)pyridine-3,5-dicarbonitrile] | – | – | – | – |
| < 200 nM | N#Cc1c(N)nc(N2CCCCC2)c(C#N)c1-c1cccc(-c2ncccc2F)c1 [Compound 24, 2-amino-4-(3-(3-fluoropyridin-2-yl)phenyl)-6-(piperidin-1-yl)pyridine-3,5-dicarbonitrile] | 70 to 90% | 40 to 70% | – | – |
| < 200 nM | N#Cc1c(N)nc(N2CCCCC2)c(C#N)c1-c1cc(-c2cccnc2)ccc1F [Compound 29, 2-amino-4-(2-fluoro-5-(pyridin-3-yl)phenyl)-6-(piperidin-1-yl)pyridine-3,5-dicarbonitrile] | – | – | – | – |
| < 200 nM | N#Cc1c(N)nc(N2CCCCC2)c(C#N)c1-c1cccc(-c2cccc(F)n2)c1 [Compound 25, 2-amino-4-(3-(6-fluoropyridin-2-yl)phenyl)-6-(piperidin-1-yl)pyridine-3,5-dicarbonitrile] | – | – | – | – |
| 200 to 1000 nM | N#Cc1c(N)nc(N2CCCCC2)c(C#N)c1-c1cccc(-c2cc(F)ccn2)c1 [Compound 26, 2-amino-4-(3-(4-fluoropyridin-2-yl)phenyl)-6-(piperidin-1-yl)pyridine-3,5-dicarbonitrile] | – | – | – | – |

Source: US12692255B2, “Adenosine 2A receptor modulators for use in the treatment of cancer” (UNIVERSITE DE GENEVE, priority 2022, dated 2026)
